Measurements reported in patent US8450479B2, “3-substituted-4-oxo-3,4-dihydro-imidazo[5,1-d][1,2,3,5-tetrazine-8-carboxylic acid amides and their use” (Pharminox Limited, priority 2007, dated 2013).
Values joined by “and” are separate entries in the source; they are usually repeats but may differ in a detail not shown here. Equal values may be shown once. Read-outs that look alike come from different tables or passages of the source.

What was measured:
Test in all cases: MTT assay for 7-day toxicity assay
Format in all cases: cell-based
[1] = tested on: Colon HCT116 (MMR mutated)
How it was run: (§1)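 Cells seeded at 400 cells/well, attached overnight, then exposed to compound at 0.5–1000 μM final for 7 days at 37 °C, 5% CO2. Viability read by MTT, with a day-0 plate fixed at drug addition as reference.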

Colon DLD1 = tested on: Colon DLD1
How it was run: as §1

[2] = tested on: Normal Human Fetal Lung Fibroblast MRC-5
How it was run: as §1

[3] = Homo sapiens, HCT-116, 168 h, Colon HCT116 (MMR mutated), 7-day MTT, single determinations, read-out: GI50
[4] = Homo sapiens, DLD-1, 168 h, Colon DLD1, 7-day MTT, single determinations, read-out: GI50
[5] = Homo sapiens, MRC5, 168 h, Normal Human Fetal Lung Fibroblast MRC-5, 7-day MTT, single determinations, read-out: GI50
[6] = Normal Human Fetal Lung Fibroblast MRC-5, 7-day MTT, single determinations, read-out: GI50
[7] = Colon HCT116 (MMR mutated), read-out: GI50
[8] = Homo sapiens, HCT-116, Colon HCT116 (MMR mutated), read-out: GI50
[9] = Homo sapiens, DLD-1, Colon DLD1, read-out: GI50
[10] = Homo sapiens, MRC5, Normal Human Fetal Lung Fibroblast MRC-5, read-out: GI50
[11] = Normal Human Fetal Lung Fibroblast MRC-5, read-out: GI50
[12] = Colon HCT116 (MMR mutated), 7-day MTT, single determinations, read-out: GI50

SMILES	GI50 [1, 3]	GI50 (Colon DLD1; [4])	GI50 [2, 5]	GI50 [2, 6]	GI50 [1, 7]	GI50 [1, 8]	GI50 (Colon DLD1; [9])	GI50 [2, 10]	GI50 [2, 11]	GI50 [1, 12]	GI50 (Colon DLD1; Colon DLD1, read-out: GI50)	GI50 ([1]; Homo sapiens, HCT-116, Colon HCT116 (MMR mutated), average of Table 1, read-out: TMZ GI50 Average)	GI50 (Colon DLD1; Homo sapiens, DLD-1, Colon DLD1, average of Table 1, read-out: TMZ GI50 Average)	GI50 ([2]; Homo sapiens, MRC5, Normal Human Fetal Lung Fibroblast MRC-5, average of Table 1, read-out: TMZ GI50 Average)
C#CCn1nnc2c(C(N)=O)ncn2c1=O [EE-001, 3-Propargyl-8-carbamoylimidazotetrazin-4-one]	59.9 µM	29.9 µM	56.1 µM	66.6 µM										
COCn1nnc2c(C(N)=O)ncn2c1=O [PX-020]					47.4 µM and 52.4 µM and 56.1 µM and 29.5 µM	57.4 µM	55.4 µM	61.6 µM	51.5 µM and 74.1 µM					
C[Si](C)(C)CCOCn1nnc2c(C(N)=O)ncn2c1=O [PX-021]					39.8 µM and 36.6 µM and 40.1 µM	33.6 µM	53.7 µM	48.6 µM	65.4 µM					
C[C@H](c1ccccc1)n1nnc2c(C(N)=O)ncn2c1=O [BB-001, (R)-3-(-1-Phenylethyl)-8-carbamoylimidazotetrazin-4-one]	151 µM	80.6 µM	174 µM							194 µM				
NC(=O)c1ncn2c(=O)n(CCl)nnc12 [PX-030]						22.3 µM		50.9 µM	67.2 µM					
CCOC(=O)Cn1nnc2c(C(N)=O)ncn2c1=O [PX-016]	65.2 µM	61.1 µM	109 µM	197 µM						66 µM				
C[S+]([O-])Cn1nnc2c(C(N)=O)ncn2c1=O (stereo not shown) [UU-003, 3-Methanesulfinylmethyl-4-oxo-3,4-dihydro-imidazo[5,1-d][1,2,3,5]tetrazine-8-carboxylic acid amide]					5.3 µM and 5 µM	6.7 µM	8.2 µM	56.8 µM	55.2 µM and 52.1 µM		9.3 µM			
Cn1nnc2c(C(N)=O)ncn2c1=O [TMZ, 3-Methyl-4-oxo-3,4-dihydro-imidazo[5,1-d][1,2,3,5]tetrazine-8-carboxylic acid amide, reference compound]	607 µM	435 µM	441 µM	458 µM		591 µM	435 µM	449 µM		570 µM and 594 µM		591 µM	435 µM	449 µM
